In ChEMBL document CHEMBL5512601, “Small-molecule inhibitors targeting apoptosis signal-regulated kinase 1” (Eur J Med Chem, 2023):
Each block holds one compound with its values, some of them ahead of it.

Columns and labels:
[1] = Half life in Sprague-Dawley rat at 1 mg/kg, iv by LC-MS/MS analysis; assay type: ADME, organism-based; conditions: in vivo
[2] = Efflux ratio of apparent permeability across basolateral to apical side over apical to basolateral side in human Caco2 cells by LC-MS/MS analysis; assay type: ADME, cell-based; conditions: Caco-2
[3] = Apparent permeability of compound across apical to basolateral side in human Caco2 cells; assay type: ADME, cell-based; conditions: Caco-2
[4] = Oral bioavailability in Sprague-Dawley rat at 1 mg/kg by LC-MS/MS analysis; assay type: ADME, organism-based; conditions: in vivo
[5] = target: T1, Mitogen-activated protein kinase kinase kinase 5 (Homo sapiens, UniProt Q99683); assay: Inhibition of ASK1 in HEK293 cells; assay type: cell-based
T1 sequence (Q99683 whole entry): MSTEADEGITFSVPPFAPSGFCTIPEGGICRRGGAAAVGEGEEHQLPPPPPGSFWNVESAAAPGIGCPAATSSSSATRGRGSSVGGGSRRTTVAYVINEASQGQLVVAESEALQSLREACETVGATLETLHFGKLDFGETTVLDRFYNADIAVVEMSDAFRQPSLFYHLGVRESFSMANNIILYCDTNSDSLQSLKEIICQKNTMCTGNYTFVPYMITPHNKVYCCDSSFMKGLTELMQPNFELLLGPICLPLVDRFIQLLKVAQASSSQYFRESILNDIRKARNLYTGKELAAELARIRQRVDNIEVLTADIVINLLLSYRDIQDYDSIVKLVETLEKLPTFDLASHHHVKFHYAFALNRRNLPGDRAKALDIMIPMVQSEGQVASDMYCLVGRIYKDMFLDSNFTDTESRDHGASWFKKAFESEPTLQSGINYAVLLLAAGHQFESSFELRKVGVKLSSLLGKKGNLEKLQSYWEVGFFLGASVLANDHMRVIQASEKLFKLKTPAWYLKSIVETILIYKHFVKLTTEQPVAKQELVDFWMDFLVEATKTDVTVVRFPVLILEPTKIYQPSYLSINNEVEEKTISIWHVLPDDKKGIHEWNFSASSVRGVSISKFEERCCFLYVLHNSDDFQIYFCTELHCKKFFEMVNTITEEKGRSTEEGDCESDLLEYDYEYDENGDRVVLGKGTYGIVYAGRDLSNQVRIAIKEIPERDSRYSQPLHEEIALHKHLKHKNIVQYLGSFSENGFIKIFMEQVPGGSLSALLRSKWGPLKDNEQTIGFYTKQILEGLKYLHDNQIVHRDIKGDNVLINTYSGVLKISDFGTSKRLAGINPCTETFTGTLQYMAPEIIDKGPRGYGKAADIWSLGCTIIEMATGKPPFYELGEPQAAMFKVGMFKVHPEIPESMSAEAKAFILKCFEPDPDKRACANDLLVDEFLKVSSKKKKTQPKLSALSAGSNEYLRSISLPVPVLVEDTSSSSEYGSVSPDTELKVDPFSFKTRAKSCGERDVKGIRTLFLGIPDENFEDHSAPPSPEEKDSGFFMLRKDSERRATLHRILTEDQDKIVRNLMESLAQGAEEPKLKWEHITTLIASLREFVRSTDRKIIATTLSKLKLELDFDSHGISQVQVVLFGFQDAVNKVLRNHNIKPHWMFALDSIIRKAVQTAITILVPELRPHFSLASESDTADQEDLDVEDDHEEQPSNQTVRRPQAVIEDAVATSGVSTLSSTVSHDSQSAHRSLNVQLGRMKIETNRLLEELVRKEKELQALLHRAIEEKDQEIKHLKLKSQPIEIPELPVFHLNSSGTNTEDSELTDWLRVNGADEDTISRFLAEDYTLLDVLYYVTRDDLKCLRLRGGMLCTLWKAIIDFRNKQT

[6] = target: T1, Mitogen-activated protein kinase kinase kinase 5; assay: Inhibition of full length GST-tagged recombinant human ASK1 using MBP as substrate incubated for 20 mins by cell based assay
[7] = target: T1, Mitogen-activated protein kinase kinase kinase 5; assay: Inhibition of full length GST-tagged recombinant human ASK1 using MBP as substrate incubated for 20 mins
Rattus norvegicus [8] = species: Rattus norvegicus; assay: Antifibrotic activity CDHFD-NaNO2 rat model; assay type: functional
Rattus norvegicus [9] = species: Rattus norvegicus; assay: Antifibrotic activity CDHFD-NaNO2 rat model assessed as effect on hydroxyproline level; assay type: functional
[10] = Unbound brain-to-plasma concentration ratio in rat at 1 mg/kg, iv by LC-MS/MS analysis; assay type: ADME, organism-based; conditions: brain and plasma, read-out: K(p,uu,brain)
[11] = target: T1, Mitogen-activated protein kinase kinase kinase 5; assay: Inhibition of ASK1 (unknown origin) incubated for 2 hrs
[12] = target: T1, Mitogen-activated protein kinase kinase kinase 5; assay: Inhibition of ASK1 phosphorylation in HEK293T cells incubated for 1 hr; assay type: cell-based

half-life [1]: 1.2 h | efflux ratio [2]: 15.4 | Papp A→B [3]: 0.26 ×10⁻⁶ cm/s | bioavailability [4]: 50% | EC50 [5]: 0.018 µM
SMILES: Cc1ccc(C(=O)Nc2cccc(-c3nncn3C(C)C)n2)cc1-n1cnc(C2CC2)c1

IC50 [6]: > 0.1 µM | IC50 [7]: > 1 µM
SMILES: Cc1cc(F)c(C(=O)Nc2cccc(-c3nnc4n3CCCC4)n2)cc1-n1nnc(C2CC2)n1

bioavailability [4]: 75%
SMILES: Cc1cc(F)c(C(=O)Nc2cccc(-c3nncn3C(C)C)n2)cc1-n1cnc(C2CC2)c1 [SELONSERTIB]
Activity (Rattus norvegicus [8]): 28% | Activity (Rattus norvegicus [9]): 6%

Kp uu [10]: ≥ 0.1 | IC50 [11]: ≤ 0.1 µM | IC50 [12]: ≤ 0.1 µM
SMILES: C[C@H]1CCCOc2ncc(-c3ccncc3)cc2C(=O)Nc2cccc(n2)-c2nncn21
